# Measured values from patent US12653862B2, “Anti-senescence compounds and uses thereof” (CLEARA BIOTECH B.V., priority 2020, dated 2026).
# “Also recorded” adds a separate entry of the source. Where two headings read alike, the source gives them in different places.
# Experiments:
# [1] = tested on: colon cancer 3D organoids; experiment: Colon cancer 3D organoids, live/dead assay, with chemotherapy; type: cell-based; conditions: for cell death vs cell cycle arrest: colon cancer 3D organoids
# Protocol: (§1) Organoids were grown at 37° C. and 5% CO2 in a humidified incubator. All organoids were cultured in matrigel (Corning) droplets in advanced DMEM/F12 (Lonza) supplemented with 1% glutamax, 1% Penicillin/Streptomycin, 1% (10 mM) HEPES, 10% Noggin conditioned medium, 2% B-27 (50×; (Thermo/Life Technologies), N-acetylcysteine ((Sigma-Aldrich, 1.25 mM)), A83-01 (Tocris, 500 nM) and SB203580 (Invitrogen/Life Technologies, 3 μM). To perform viability and apoptosis assays, the organoids were passaged through resuspension in ice-cold medium, followed by centrifugation in 15 ml tubes at 4° C. The resulting pellet was trypsinized for 5 minutes at 37° C. to obtain single cells and subsequently washed twice with advanced DMEM/F12 media. These cells were then resuspended in Matrigel and plated in 96-well plates in 5 ul droplets. 100 ul fresh medium was added to the wells 15 minutes later. Peptide and chemotherapy treatment was added to the organoids 2 days after plating.
# A Live/dead assay was performed on both larger organoids 3 days after peptide and/or chemotherapy treatment, or on organoids that were treated as single cells and allowed to grow out for 2 weeks before the assay was performed. To perform the assay, Calcein-AM (1:1000) and Propidium Iodide (PI; 1:100) were added to the medium of the organoids to detect living and dead cells respectively. The organoids were then imaged on a Zeiss Cell Observer microscope and the signal was quantified using FIJI.
# [2] = tested on: WT colon and tumor progression (TPO) organoids; experiment: Cell viability of WT colon and tumor progression (TPO) organoids; type: cell-based; conditions: increasing concentrations, measured 5 days later
# Protocol: as §1
# [3] = tested on: 3D colon organoids; experiment: Outgrowth of 3D colon organoids after peptide exposure; type: cell-based
# Protocol: as §1
# A Live/dead assay was performed on both larger organoids 3 days after peptide and/or chemotherapy treatment, or on organoids that were treated as single cells and allowed to grow out for 2 weeks before the assay was performed. […] The organoids were then imaged on a Zeiss Cell Observer microscope and the signal was quantified using FIJI.
# [4] = tested on: IMR90 lung fibroblasts; experiment: Caspase-3/7 apoptosis assay in senescent vs healthy control IMR90 cells; type: cell-based, Human; conditions: for apoptosis induction by Caspase-3/7 activation, senescent vs healthy control cells: IMR90, FOXO4-DRI as control
# Protocol: (§2) Human IMR90, WI38 and RPE cells were grown in Dulbecco's Modified Eagle's Medium (DMEM; Lonza) containing 10% FCS and 1% pen/strep at 37° C. with 3.0% 02 and 5.0% CO2. To induce senescence, cells were irradiated with 10Gy ionizing radiation (Gammacell 1000) and were left for a minimum of 10 days to become senescent.
# (§3) To perform viability and apoptosis assays, cells were split into 96-well plates and treated with peptides 2 days later. Non-senescent and cancer cells were plated 1500 cells/well, while senescent cells were plated at 8.000 cells/well.
# (§4) For a caspase assay, Caspase-Glo 3/7 assay reagent (Promega) was added to the medium 2 days after treatment. The plates were then incubated in aluminium foil at room temperature on a shaker for 1 hour and subsequently measured with a Luminescence Plate Reader.
# [5] = tested on: MCF10 cells; experiment: Caspase assay in senescent human breast epithelial MCF10 cells; type: cell-based; conditions: 2 days, vs FOXO4-DRI/CL03001
# Protocol: as §4
# [6] = target: T1, full-length TP53 (Homo sapiens, UniProt P04637); experiment: Streptavidin bead pull-down of endogenous TP53 from HEK293T lysates with biotinylated peptide; type: binding; conditions: streptavidin beads, HEK293T cell lysates, vs FOXO4-DRI
# T1 construct: endogenous TP53 from lysates ofHEK293T cells; endogenous in cells; host or cells: HEK293T
# T1 sequence (P04637 whole entry): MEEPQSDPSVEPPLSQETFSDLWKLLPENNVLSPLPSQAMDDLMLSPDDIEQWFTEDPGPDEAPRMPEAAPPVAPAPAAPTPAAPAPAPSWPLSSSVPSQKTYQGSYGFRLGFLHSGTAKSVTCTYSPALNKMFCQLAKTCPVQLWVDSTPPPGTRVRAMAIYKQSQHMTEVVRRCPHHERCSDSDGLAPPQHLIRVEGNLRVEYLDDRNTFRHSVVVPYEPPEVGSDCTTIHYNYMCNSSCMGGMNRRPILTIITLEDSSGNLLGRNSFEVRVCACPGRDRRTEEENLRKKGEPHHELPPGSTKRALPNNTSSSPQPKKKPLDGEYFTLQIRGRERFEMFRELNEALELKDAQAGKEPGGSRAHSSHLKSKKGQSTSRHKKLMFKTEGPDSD
# [7] = tested on: GBM8 glioblastoma cells; experiment: Caspase-3/7 activation (apoptosis) in GBM8 glioblastoma cells; type: cell-based
# Protocol: (§5) GBM8 cells were cultured in Dulbecco's Modified Eagle's Medium/Nutrient Mixture F-12 (DMEM F-12), containing high glucose, L-Glutamine, no phenol red, supplemented with 1% (10 mM) HEPES, 1% Penicillin/Streptomycin, 2% B-27 (50×), 5 μg/ml Heparin sodium salt from porcine intestinal mucosa Grade I-A, 20 ng/ml recombinant human Fibroblast Growth Factor (rhFGF) and 20 ng/ml recombinant human Epidermal Growth Factor (rhEGF). These cells were cultured in plastic ware coated with Matrigel Matrix (20× diluted in DMEM F-12) at 37° C., 5% CO2 and 3% O2 in a humified incubator.
# as §3, §4
# [8] = tested on: colon carcinoma 3D organoid cultures; experiment: Colon carcinoma 3D organoid cultures; type: cell-based
# Protocol: as §1
# [9] = Peptide stability in solution; type: physicochemical
# Protocol: Both peptides were dissolved in H2O and kept at room temperature. The peptide concentration was determined for the indicated time points.
# [10] = tested on: GBM8 glioblastoma cells; experiment: Loss of LDH (cell death) in GBM8 glioblastoma cells; type: cell-based; conditions: GBM8, vs FOXO4-DRI
# Protocol: as §5, §3
# [11] = target: T2, TP53-TAD2 (Homo sapiens, UniProt P04637); experiment: Fluorescence polarization with FITC-labeled TP53-TAD2; type: binding; conditions: FITC-labeled TP53-TAD2 (250 nM), increasing concentrations of peptides
# T2 construct: amino acid 37 to 57 (p53-TAD2)
# T2 sequence (P04637 37-57 limits assumed): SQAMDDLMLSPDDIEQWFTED
# Protocol: 116 μl of a solution of the specific peptides (ranging from 1 to 100 μM) were prepared. […] 35 μl were then transferred in each well of the 384-well plate. Measurements were performed in triplicates.
# Data was acquired on a ClarioStar Plus platereader. Endpoint measurement with 200 flashes per well were performed. An excitation filter with 482 nm wavelength and emission filter with 530 nm were used and gain adjustment as well as focal height adjustment were performed for each measurement. Fluorescence intensity, parallel fluorescence polarization and perpendicular fluorescence polarization were recorded.
# Data analysis was performed using MARS Version 3.4 (BMG), Microsoft Excel and GraphPad Prism Version 8.
# [12] = tested on: normal wildtype colon organoids; experiment: Normal wildtype colon organoids, with or without APC depletion; type: cell-based
# Protocol: as §1
# [13] = tested on: WI38 cells; experiment: Apoptosis in healthy WI38 cells; type: cell-based, Human; conditions: FIG. 9C
# Protocol: as §2, §3, §4
# [14] = tested on: Caspase-3/7 activation; experiment: Live imaging of Caspase-3/7 activation over time; type: cell-based
# Protocol: Organoids and IMR90 cells were grown in 96-well cell culture plates and either the 488 IncuCyte Caspase 3/7 Reagent For Apoptosis (Sartorius) or the IncuCyte Caspase 3/7 red apoptosis assay reagent (Essen Bioscience) was added to the wells. Peptides were added directly before the plate was transferred to a Zeiss Cell Observer microscope that contains a Heat and CO2-controlled compartment. Subsequently, live imaging was started where a picture was recorded every 2 hours for 60 hours. Images were processed using Zen imaging software (Zeiss).
compound,measurement,setting,value
"O=c1[nH]cc(F)c(=O)[nH]1 [SFU, 5-fluorouracil, reference compound]",cell death vs cell cycle arrest,[1],merely causes a cell cycle arrest
RKKASSKIEAAILDAFSQNWRRKRPPRRRQRRKKRG (listed as Homo sapiens) [CL04124],"cell viability, sensitivity of organoids with colorectal cancer associated mutations",[2],"sensitizes to FOXO4-based peptides, dependent on p53"
RKKASSKIAAAILDAFSQNGWANRRSSCKRP (listed as Homo sapiens) [CL04009],tumor outgrowth of organoids,[3]; 14 d after exposure,no more tumor outgrowth
same,cytotoxic vs cytostatic effect,[3]; colon organoids,cytotoxic on colon organoids and not just cytostatic
same,"apoptosis induction by Caspase-3/7 activation, senescent vs healthy control cells",[4],"superior selectivity to induce apoptosis by Caspase-3/7 activation in senescent, but not healthy control IMR90 lung fibroblasts; also recorded: very potent and selective capacity to induce apoptosis in senescent"
same,effective concentration (potency),"[4]; IMR90, compared with FOXO4-DRI",effective at a lower concentration
same,"apoptosis induction (caspase assay), potency",[5],more potent in inducing apoptosis
same,pull-down of endogenous TP53 (binding to full-length TP53),[6],potent in binding recombinant TP53-TAD2 and full-length TP53
RKKASSKIAAAILDAFSQNAWANRRSSCKRP (listed as Homo sapiens) [CL04022],"Caspase3/-7 activation (apoptosis), potency","[7]; GBM8, vs FOXO4-DRI",more potent than FOXO4-DRI
same,apoptosis induction,"[7]; GBM8 glioblastoma cells, FIG. 9C",induce apoptosis in GBM8 glioblastoma cells
same,efficacy against organoid cultures,[8]; one Microsatellite stable (MSS) line,ineffective
same,"selectivity, patient-derived colorectal cancers vs healthy control samples",[8]; patient-derived samples,selective
same,efficacy against organoid cultures,[8]; two microsatellite-unstable (MSI) lines,effective
same,"stability, peptide concentration over time","[9]; dissolved in H2O, room temperature, multiple days",more stable than CL04009
same,stability in solution,[9]; in solution,improved stability in solution
same,"loss of LDH (cell death), potency",[10],more potent than FOXO4-DRI
same,efficacy in organoids that survived chemotherapy,[1]; after 5′FluoroUracil or Oxaliplatin,more effective
same,cell death vs cell cycle arrest,[1],"induces cell death, not merely causes a cell cycle arrest"
same,binding of TP53-TAD by fluorescence polarization,[11],more potent in binding TP53-TAD than the reference compound
same,potency against organoids,[12]; normal wildtype colon organoids,less potency
same,efficacy against organoids,[12]; organoids depleted for APC,effective
same,apoptosis induction,[13],not in healthy Wi38 cells
same,"apoptosis induction by Caspase-3/7 activation, senescent vs healthy control cells",[4],still better than the control
same,full Caspase-3/7 activation complete,[14],60 h
same,start of Caspase-3/7 activation after administration,[14],24 h
RKKASSKIAAAILDAFSQNAWANRRSSCKRPPPRRRQRRKKRA (listed as Homo sapiens) [SEQ ID NO: 23],stability in solution,[9],improved stability in solution
RKKASSKIAAAILDAFSQNWRRKR (listed as Homo sapiens) [CL04088],"apoptosis induction by Caspase-3/7 activation, senescent vs healthy control cells",[4],superior to peptide CL04022
AKIEAAILDAFSQNBRKRRRRQRRKKRG [CL05114],stability in solution,[9],superior stability
